Legend:
[1] = molecular target: T1, sPLA2 contraction (Homo sapiens, UniProt P14555); experiment: sPLA2-induced contraction of guinea pig lung pleural strips, tissue test (Assay Example 2); design: species or system Male Hartley strain guinea pigs; key to transient contraction of tissue during test: *: indicates transient contraction of tissue during test; conditions: for inhibition at 30 µM: guinea pig, compound concentration 30 uM, sPLA2 10 ug/ml, read-out: % suppression of sPLA2 contraction at 30 uM
T1 sequence (P14555 21-144): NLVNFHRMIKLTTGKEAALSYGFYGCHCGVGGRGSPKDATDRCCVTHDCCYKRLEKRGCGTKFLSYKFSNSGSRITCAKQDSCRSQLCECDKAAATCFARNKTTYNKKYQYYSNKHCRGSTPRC
Text: Male Hartley strain guinea pigs (500-700 g) were killed by cervical dislocation and their heart and lungs removed intact and placed in aerated (95% O2 :5% CO2) Krebs buffer. Dorsal pleural strips (4×1×25 mm) were dissected from intact parenchymal segments (8×4×25 mm) cut parallel to the outer edge of the lower lung lobes. Two adjacent pleural strips, obtained from a single lobe and representing a single tissue sample, were tied at either end and independently attached to a metal support rod. One rod was attached to a Grass force-displacement transducer (Model FTO3C, product of Grass Medical Instruments Co., Quincy, Mass., USA). […] All tissues were placed in 10 ml jacketed tissue baths maintained at 37° C. The tissue baths were continuously aerated and contained a modified Krebs solution of the following composition (millimolar) NaCl, 118.2; KCl, 4.6; CaCl2.2H2 O, 2.5; MgSO4.7H2 O, 1.2; NaHCO3, 24.8; KH2 PO4, 1.0; and dextrose, 10.0. Pleural strips from the opposite lobes of the lung were used for paired experiments. […] The tissues were allowed to equilibrate for 45 min. as the bath fluid was changed periodically. Cumulative concentration-response curves: Initially tissues were challenged 3 times with KCl (40 mM) to test tissue viability and to obtain a consistent response. After recording the maximal response to KCl the tissues were washed and allowed to return to baseline before the next challenge. Cumulative concentration-response curves were obtained from pleural strips by increasing the agonist concentration (sPLA2) in the tissue bath by half-log10 increments while the previous concentration remained in contact with the tissues (Ref.1, supra.) Agonist concentration was increased after reaching the plateau of the contraction elicited by the preceding concentration. One concentration-response curve was obtained from each tissue. To minimize variability between tissues obtained from different animals, contractile responses were expressed as a percentage of the maximal response obtained with the final KCl challenge. When studying the effects of various drugs on the contractile effects of sPLA2, the compounds and their respective vehicles were added to the tissues 30 min. prior to starting the sPLA2 concentration-response curves. statistical analysis: Data from different experiments were pooled and presented as a percentage of the maximal KCl responses (mean±S.E.). To estimate the drug induced rightward shifts in the concentration response curves, the curves were analyzed simultaneously using statistical nonlinear modeling methods similar to those described by Waud (1976), Equation 26, p. 163, (Ref.2). The model includes four parameters: the maximum tissue response which was assumed the same for each curve, the ED50 for the control curve, the steepness of the curves, and the PA2, the concentration of antagonist that requires a two-fold increase in agonist to achieve an equivalent response. The Schild slope was determined to be 1, using statistical nonlinear modeling methods similar to those described by Waud (1976), Equation 27, p. 164 (Ref. 2). […] To estimate the drug-induced suppression of the maximal responses, sPLA2 responses (10 ug/ml) were determined in the absence and presence of drug, and percent suppression was calculated for each pair of tissues. Ref. 1--van Rossum, J. M.: Cumulative dose-response curves. II. Technique for the making of dose-response curves in isolated organs and the evaluation of drug parameters. Arch. Int. Pharmacodyn. Ther. 143: 299-330, 1963. Ref. 2--Waud, D.: Analysis of dose-response relationships. in Advances in General and Cellular Pharmacology […]

[2] = molecular target: T2, human secreted PLA2 (Homo sapiens, UniProt P14555); experiment: chromogenic assay of recombinant human secreted phospholipase A2 inhibition (Assay Example 1); format: biochemical; conditions: mean of 3-5 tests; 40° C., 30 minutes, pH 7.5, 405 nanometers; read-out: Inhibition of human secreted PLA2 IC50 ± mean deviation (3-5 tests)
T2 sequence (P14555 21-144): T1 sequence (P14555 21-144)
Text: The assay described herein has been adapted for high volume screening using 96 well microtiter plates. A general description of this assay method is found in the article, "Analysis of Human Synovial Fluid Phospholipase A2 on Short Chain Phosphatidylcholine-Mixed Micelles: Development of a Spectrophotometric Assay Suitable for a Microtiterplate Reader", by Laure J. Reynolds, Lori L. […] Reagents, the disclosure of which is incorporated herein by reference. REACTION BUFFER CaCl2.2H20 (1.47 g/L) KCl (7.455 g/L) Bovine Serum Albumin (fatty acid free) (1 g/L) (Sigma A-7030, product of Sigma Chemical Co. St. Louis Mo., USA) TRIS HCl (3.94 g/L) pH 7.5 (adjust with NaOH) ENZYME BUFFER […] 0.2 NaCl Adjust pH to 4.5 with acetic acid DTNB […] RACEMIC DIHEPTANOYL THIO - PC […] TRITON X-100™ prepare at 6.249 mg/ml in reaction buffer to equal […]. REACTION MIXTURE A measured volume of racemic dipheptanoyl thio PC supplied in chloroform at a concentration of 100 mg/ml is taken to dryness and redissolved in 10 millimolar TRITON X-100™ nonionic detergent aqueous solution. Reaction Buffer is added to the solution, then DTNB to give the Reaction Mixture. The reaction mixture thus obtained contains 1 mM diheptanoly thio-PC substrate, 0.29 mM Triton X-100™ detergent, and 0.12 mM DTMB in a buffered aqueous solution at pH 7.5. Assay Procedure: 1. Add 0.2 ml reaction mixture to all wells; 2. Add 10 ul test compound (or solvent blank) to appropriate wells, mix 20 seconds; 3. Add 50 nanograms of sPLA2 (10 microliters) to appropriate wells; 4. Incubate plate at 40° C. for 30 minutes; […] Read absorbance of wells at 405 nanometers with an automatic plate reader. All compounds were tested in triplicate. Typically, compounds were tested at a final concentration of 5 ug/ml. […] Lack of color development at 405 nanometers evidenced inhibition. Compounds initially found to be active were reassayed to confirm their activity and, if sufficiently active, IC50 values were determined. […] In all cases, % inhibition measured at 405 nanometers generated by enzyme reactions containing inhibitors relative to the uninhibited control reactions was determined. Each sample was titrated in triplicate and result values were averaged for plotting and calculation of IC50 values. […] IC50 values were determined at least three times for each compound tested.

SMILES | inhibition at 30 µM [1] | IC50 [2] | transient contraction of tissue during test ([1]; footnote * of Table 2)
CCc1c(CC(=O)NN)c2cc(OC3CCCC3)ccc2n1Cc1ccccc1 [Example 2, 5-Cyclopentoxy-2-ethyl-1-(phenylmethyl)-1H-indole-3-acetic acid hydrazide] | 60.5 ± 12.8% | 0.47 ± 0.15 µM | –
CCc1c(CC(=O)NN)c2cc(OC)ccc2n1Cc1ccccc1 [Example 3, 2-Ethyl-5-methoxy-1-(phenylmethyl)-1H-indole-3-acetic acid hydrazide] | 77.9 ± 4.2% | 0.42 ± 0.19 µM | *
CCc1c(CC(=O)NN)c2cc(OC)ccc2n1Cc1ccccc1-c1ccccc1 [Example 4, 1-([1,1'-biphenyl]-2-ylmethyl)-2-ethyl-5-methoxy-1H-indole-3-acetic acid hydrazide] | 11 ± 10.3% | 5.17 ± 6.71 µM | –
CCCc1c(CC(=O)NN)c2cc(OC)ccc2n1Cc1ccccc1 [Example 5, 5-Methoxy-1-(phenylmethyl)-2-propyl-1H-indole-3-acetic acid hydrazide] | 21.2 ± 12.5% | 70.5 ± 2.89 µM | –
COc1ccc2c(c1)c(CC(=O)NN)c(C)n2CCCc1ccccc1 [Example 41, 5-Methoxy-2-methyl-1-(3-phenylpropyl)-1H-indole-3-acetic acid hydrazide] | – | 16.8 ± 2.89 µM | –
COc1ccc2c(c1)c(CC(=O)NN)c(C)n2CCCCc1ccccc1 [Example 42, 5-Methoxy-2-methyl-1-(4-phenylbutyl)-1H-indole-3-acetic acid hydrazide] | – | 16.5 ± 3.58 µM | –
COc1ccc2c(c1)c(CC(=O)NN)c(SC)n2Cc1ccccc1 [Example 45, 5-Methoxy-2-methylthio-1-(phenylmethyl)-1H-indole-3-acetic acid hydrazide] | – | 0.6 ± 0.13 µM | –
COc1ccc2c(c1)c(CC(=O)NN)c([S+](C)[O-])n2Cc1ccccc1 (centres unmarked) [Example 46, 5-Methoxy-2-methylsulfinyl-1-(phenylmethyl)-1H-indole-3-acetic acid hydrazide] | – | 46.1 ± 24.7 µM | –
Cc1c(CC(=O)NN)c2cc(F)ccc2n1Cc1ccccc1 [Example 47, 5-Fluoro-2-methyl-1-(phenylmethyl)-1H-indole-3-acetic acid hydrazide] | – | 1.49 ± 0.34 µM | –
Cc1c(CC(=O)NN)c2cc(Cl)ccc2n1Cc1ccccc1 [Example 48, 5-Chloro-2-methyl-1-(phenylmethyl)-1H-indole-3-acetic acid hydrazide] | – | 0.74 ± 0.15 µM | –
Cc1c(CC(=O)NN)c2cc(Cl)ccc2n1Cc1cccc(Cl)c1 [Example 49, 5-Chloro-[(3-chlorophenyl)methyl]-2-methyl-1H-indole-3-acetic acid hydrazide] | – | 1.63 ± 0.74 µM | –
Cc1c(CC(=O)NN)c2cc(Br)ccc2n1Cc1ccccc1 [Example 50, 5-Bromo-2-methyl-1-(phenylmethyl)-1H-indole-3-acetic acid hydrazide] | – | 1.02 ± 0.43 µM | –
Cc1c(CC(=O)NN)c2cc(Br)ccc2n1Cc1cccc(-c2ccccc2)c1 [Example 51, 1-([1,1'-biphenyl]-3-ylmethyl)-5-bromo-2-methyl-1H-indole-3-acetic acid hydrazide] | – | 1.34 ± 0.44 µM | –
Cc1c(CC(=O)NN)c2c(Br)cccc2n1Cc1ccccc1 [Example 53, 4-Bromo-2-methyl-1-(phenylmethyl)-1H-indole-3-acetic acid hydrazide] | – | 2.06 ± 0.94 µM | –
Cc1c(CC(=O)NN)c2ccc(Br)cc2n1Cc1ccccc1 [Example 54, 6-Bromo-2-methyl-1-(phenylmethyl)-1H-indole-3-acetic acid hydrazide] | – | 1.02 ± 0.26 µM | –
Cc1c(CC(=O)NN)c2c(-c3ccccc3)cccc2n1Cc1ccccc1 [Example 55, 2-Methyl-4-phenyl-1-(phenylmethyl)-1H-indole-3-acetic acid hydrazide] | – | 2.06 ± 0.94 µM | –
Cc1c(CC(=O)NN)c2cc(-c3ccccc3)ccc2n1Cc1ccccc1 [Example 56, 2-Methyl-5-phenyl-1-(phenylmethyl)-1H-indole-3-acetic acid hydrazide] | – | 0.86 ± 0.2 µM | –
Cc1c(CC(=O)NN)c2cc(-c3ccccc3)ccc2n1Cc1cccc(OCc2ccccc2)c1 [Example 58, 1-[(3-Benzyloxyphenyl)methyl]-2-methyl-5-phenyl-1H-indole-3-acetic acid hydrazide] | – | 2.21 ± 1.16 µM | –
Cc1ccc2c(c1)c(CC(=O)NN)c(C)n2Cc1ccccc1 [Example 59, 2,5-Dimethyl-1-(phenylmethyl)-1H-indole-3-acetic acid hydrazide] | – | 0.76 ± 0.35 µM | –
Cc1c(CC(=O)NN)c2cc(C(C)(C)C)ccc2n1Cc1ccccc1 [Example 60, 5-tert-Butyl-2-methyl-1-(phenylmethyl)-1H-indole-3-acetic acid hydrazide] | – | 1.02 ± 0.35 µM | –
Cc1c(CC(=O)NN)c2cc(OCc3ccc4ccccc4n3)ccc2n1Cc1ccccc1 [Example 62, 2-Methyl-1-(phenylmethyl)-5-[(2-quinolyl)methoxy]-1H-indole-3-acetic acid hydrazide] | – | 0.36 ± 0.17 µM | –
Cc1c(CC(=O)NN)c2cc(OCc3ccc4ccccc4n3)ccc2n1Cc1ccc(Cl)cc1 [Example 63, 1-[(4-Chlorophenyl)methyl]-2-methyl-5-[(2-quinolyl)methoxy]-1H-indole-3-acetic acid hydrazide] | – | 8.46 ± 5.45 µM | –
Cc1c(CC(=O)NN)c2cc(C(=O)NN)ccc2n1Cc1cccc(Cl)c1 [Example 69, 1-[(3-Chlorophenyl)methyl]-5-hydrazinocarbonyl-2-methyl-1H -indole-3-acetic acid hydrazide] | – | 2.7 ± 0.38 µM | –
Cc1c(CC(=O)NN)c2cc(OCCCC(=O)O)ccc2n1Cc1ccccc1 [Example 71, 4-[[3-(2-Hydrazino-2-oxoethyl)-2-methyl-1-(phenylmethyl)-1H-indol-5-yl]oxy]butanoic acid] | – | 0.86 µM | –

From US5578634A, “1H-indole-3-acetic acid hydrazide sPLA2 inhibitors” (Eli Lilly and Company, priority 1995, dated 1996)
